Measurements taken from the supplement of paper PMC10721915.
± gives the standard deviation of the averaged measurements.

Compound: COc1ccc([C@@H](O)c2cc(-c3ncnc4cc(N5CCOCC5)ccc34)c(F)cc2Cl)nn1 [peposertib]
Test: relative cell growth vs untreated control (GI, NCI-DTP normalisation with time-zero) (fraction of control growth); higher = more growth / less inhibition
Conditions: treatment time: 120 h
Procedure: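 Cancer cell lines were treated with peposertib (DNA-PK inhibitor) combined with gamma ionizing radiation (0, 2, 3 or 6 Gy) for 120 h, starting 48 h after seeding. Read-out was sulforhodamine B total-protein staining, normalised to untreated control and time-zero wells (NCI-DTP GI convention).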

[1] = peposertib concentration 0.00488 µM, gamma irradiation dose (Gy): 0
[2] = peposertib concentration 0.0195 µM, gamma irradiation dose (Gy): 0
[3] = peposertib concentration 0.0781 µM, gamma irradiation dose (Gy): 0
[4] = peposertib concentration 0.313 µM, gamma irradiation dose (Gy): 0
[5] = peposertib concentration 1.25 µM, gamma irradiation dose (Gy): 0
[6] = peposertib concentration 5 µM, gamma irradiation dose (Gy): 0
[7] = peposertib concentration 0.00488 µM, gamma irradiation dose (Gy): 3
[8] = peposertib concentration 0.0195 µM, gamma irradiation dose (Gy): 3
[9] = peposertib concentration 0.0781 µM, gamma irradiation dose (Gy): 3
[10] = peposertib concentration 0.313 µM, gamma irradiation dose (Gy): 3
[11] = peposertib concentration 1.25 µM, gamma irradiation dose (Gy): 3
[12] = peposertib concentration 5 µM, gamma irradiation dose (Gy): 3

Test System	relative cell growth [1]	relative cell growth [2]	relative cell growth [3]	relative cell growth [4]	relative cell growth [5]	relative cell growth [6]	relative cell growth [7]	relative cell growth [8]	relative cell growth [9]	relative cell growth [10]	relative cell growth [11]	relative cell growth [12]
KASUMI1	0.984	0.968	0.859	0.577	0.181	-0.0751						
L363	0.996	1	0.98	0.813	0.39	0.0471						
LOVO	1.01 ± 0.055	0.946 ± 0.026	0.83 ± 0.068	0.617 ± 0.11	0.348 ± 0.083	0.16 ± 0.064	0.384	0.357	0.28	0.186	0.0588	0.00966
MDAMB231	1.11	1.1	1.06	1.04	0.995	0.84						
MDAMB435	0.989	1.03	1.02	0.924	0.721	0.207						
MDAMB436	1.04	0.987	0.992	0.795	0.541	0.188						
MDAMB468	1.04	0.969	0.942	0.794	0.556	0.222						
MHHES1	0.994	0.99	0.974	0.915	0.776	0.458						
MIAPACA2	1.05 ± 0.024	1.07 ± 0.072	1.01 ± 0.022	0.991 ± 0.07	0.891 ± 0.18	0.611 ± 0.18	0.592	0.546	0.286	0.086	0.0368	0.0246
MINO	0.833	0.904	0.937	0.73	0.326	0.0668						
MT3	0.994	0.98	0.951	0.828	0.415	0.0961						
MV411	0.937	0.935	0.924	0.793	0.383	0.0939						
NCIH82	0.982 ± 0.048	1.016 ± 0.0085	0.988 ± 0.034	0.892 ± 0.15	0.718 ± 0.24	0.422 ± 0.055	0.219	0.187	0.11	0.0372	0.0097	0.000329
NCIH292	0.959 ± 0.031	1.017 ± 0.0086	0.924 ± 0.039	0.684 ± 0.078	0.33 ± 0.064	0.00769 ± 0.042	0.526	0.511	0.357	0.21	0.0579	-0.0162
NCIH358M	1.004 ± 0.01	0.975 ± 0.03	0.963 ± 0.03	0.869 ± 0.1	0.695 ± 0.16	0.345 ± 0.078	0.299	0.27	0.182	0.181	0.108	0.0702
NCIH460	1.05 ± 0.025	1.04 ± 0.02	1.02 ± 0.025	0.934 ± 0.16	0.661 ± 0.37	0.177 ± 0.11	0.302	0.384	0.181	0.0919	0.044	0.0283
OVCAR3	0.907	0.952	0.919	0.739	0.372	0.0464						
OVCAR4	1.03	1.01	0.983	0.875	0.858	0.633						
PANC1	0.969	0.974	0.956	0.92	0.741	0.411						
PC3	1.04	1	0.971	0.781	0.532	0.262						
PLCPRF5	1.01	0.969	0.974	0.898	0.807	0.586						
RAMOS	1.06	0.987	0.927	0.736	0.377	0.129						
RD	0.929	0.97	0.942	0.94	0.826	0.455						
RDES	0.935	0.961	0.971	0.785	0.57	0.24						
SAOS2	0.945	0.983	0.946	0.82	0.458	0.0757						
SF268	1.01	0.994	0.943	0.867	0.747	0.516						
